From patent publication US20160008339A1, “PSORALEN DERIVATIVES FOR PREVENTING OR TREATING HEART FAILURE OR CARDIAC HYPERTROPHY” (MAX-DELBRUCK-CENTRUM FUR MOLEKULARE MEDIZIN, priority 2012, published 2016)
“Also recorded” adds a separate entry of the source.

Key:
[1] = system: primary neonatal rat cardiomyocytes; experiment: Beat frequency of neonatal cardiomyocytes by Fluo-4 calcium measurement; assay type: cell-based
Protocol: For cultivation of primary neonatal rat cardiomyocytes, hearts of two to three days old rats were obtained and quickly stored on ice in ADS buffer (116.4 mM NaCl, 5.4 mM KC, 5.6 mM dextrose, 10.9 mM NaH2PO4, 405.7 μmol/L MgSO4, 20 mM Hepes, pH 7.3). Under sterile conditions, the hearts were cleaned from blood and vessels, cut into small pieces and transferred into falcon tubes. The ADS buffer was exchanged against an enzyme solution (see table below). Within four cycles each with five ml enzyme solution and an enzyme mix comprising collagenase and pancreatin, isolated cells were released from the tissue (12 min at 37° C. in a water bath with approx. 220 rpm).
The supernatant with the isolated cells was collected, transferred in fetal calf serum (FCS, 2.5 ml on ice) and subsequently centrifugated in FCS (100 g for 3 min at 4° C.). The supernatant of the centrifugation was discarded and the pellet was resuspended in 5 ml cold plating medium. After an additional centrifugation, the pellet was resuspended in 15 ml medium, transferred into a dish and incubated for two hours at 37° C. to allow the settling of the fibroblasts. The cardiomyocytes in the supernatant were counted with a Scepter Handheld Automated Cell Counter and transferred in dishes coated with gelatine. On the following day the medium was changed.
The frequency of contraction could be determined in a similar manner with a calcium sensor (Fluo-4). In a laser-scanning microscope, Fluo-4 was excited with an argon laser (488 nm) and the emission signals were detected and collected at a wavelength of 505 nm. The fluorescence intensity represented the intracellular concentration of calcium ions. Usually, the line-scan mode was used for image recording, and the line-scan images were recorded with a speed of 1.54 or 1.92 ms per line along the longitudinal axis of the cell. After the sequential image recording, a two-dimensional image with 512×100 lines or 512×2000 lines was generated and saved for later analysis.
Additional calcium measurements were performed. […] The fluorescence dye Fluo-4 was added after 20 min. Fluo-4 is a calcium sensor, which is used for investigating the calcium increase in cells. In cardiomyocytes the dye serves for examining the contractility. During contraction and relaxation, the calcium concentrations differ in the cytosol of cardiomyocytes. The fluorescence intensity of Fluo-4 increases with an increasing calcium concentration, and a decreasing calcium concentration will cause reduced fluorescence intensity. A frequency could be calculated from the fluo-4 fluorescence oscillation by a time depended analysis, wherein the fluorescence was measured over a period of two hours. The ground state at the moment before application (black), the period 10 to 30 sec after application (dark grey) and 70 to 110 sec after application (light grey) were evaluated (FIG. 5). Application refers to the adding of PE or adrenaline. […] The statistical analysis was performed according to the method of analysis of variance (ANOVA).

[2] = molecular target: T1, AKAP-Lbc (guanine nucleotide exchange on RhoA) (Homo sapiens, UniProt Q12802); experiment: RhoGEF nucleotide exchange assay (GDP against mGTP on RhoA); conditions: IC50 (fifty percent inhibition of nucleotide exchange), 15 min
T1 sequence (Q12802 1994-2333): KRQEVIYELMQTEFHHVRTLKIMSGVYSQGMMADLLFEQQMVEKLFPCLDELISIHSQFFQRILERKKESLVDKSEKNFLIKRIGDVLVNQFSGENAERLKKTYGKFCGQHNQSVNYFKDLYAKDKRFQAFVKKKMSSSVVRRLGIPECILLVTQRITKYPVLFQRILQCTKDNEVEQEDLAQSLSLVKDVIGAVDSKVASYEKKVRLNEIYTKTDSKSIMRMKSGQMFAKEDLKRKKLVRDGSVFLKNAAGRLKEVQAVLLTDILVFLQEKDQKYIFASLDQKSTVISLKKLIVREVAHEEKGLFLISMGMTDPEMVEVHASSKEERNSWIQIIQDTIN
Protocol: Following the protocol of the RhoGEF exchange assay Biochem Kit, a nucleotide exchange experiment for AKAP-Lbc and RhoA was established. The fluorescence labelled nucleotide analogues 2′(3′)-O—(N-methylanthraniloyl)-guanosine diphosphate and 2′(3′)-O—(N-methylanthraniloyl)-guanosine triphosphate, hereinafter referred to mGDP and mGTP, were used for tracing the nucleotide exchange.
25 μl depletion buffer (100 mmol/L sodium phosphate, pH 7.4, 5 mmol/L EDTA, 200 mmol/L ammonium sulfate) with an excess of mGDP (5 mmol/L) were added to 200 μg recombinant his6-RhoA (25 μl) and incubated one hour at room temperature. Then, magnesium chloride (MgCl2) was added to a final concentration of 10 mmol/L.
By centrifugation with Vivaspin® 500 concentrator vials (MWCO 5 kDa, 10 min, 10000 rpm) and buffer (100 mmol/L sodium phosphate, pH 7.4, 100 mmol/L NaCl, protease inhibitor [cOmplete, Mini, EDTA-free protease inhibitor cocktaile]) RhoA-mGDP was washed twice and reduced to 100 μl. 1 μmol/L RhoA-mGDP and 0.5 μmol/L AKAP-Lbc DHPH in nucleotide exchange buffer (40 mmol/L Tris pH 7.5; 100 mmol/L NaCl; 20 mmol/L MgCl2, 100 μg/ml BSA) were used for the nucleotide exchange. The fluorescence measurements were performed in a micro plate reader (TECAN Safire) over a period of 15 min, whereby the fluorophore of mGDP was excited at 360 nm and the resulting fluorescence signal was determined at 440 nm.
At a concentration relation of 2 μmol/L protein and 1 μmol/L mGTP, an ideal fluorescence signal-to-noise-ratio was found in the nucleotide exchange buffer (40 mM Tris pH 7.5, 100 mmol/L NaCl, 20 mmol/L MgCl2, 100 μg/ml BSA). The fluorescence signal for mGTP was measured analogous to mGDP (λexc=360 nm; λem=440 nm) in a micro plate reader (TECAN Safire) over a period of 15 min. The experiment was performed in a 384-well plate.

[3] = system: primary neonatal cardiomyocytes (α-sceletal muscle actin mRNA); experiment: Hypertrophy marker α-actin 1 mRNA by quantitative real-time PCR; assay type: cell-based, rat
Protocol: Primary neonatal cardiomyocytes were prepared as described above. The cardiomyocytes were stimulated for 24 or 48 hours with 100 μmol/L phenylephrin (PE) or 10 μmol/L isoproterenol (ISO) in absence or presence of 10 μmol/L or 50 μmol/L of compound 31413.
After 24 hours or 48 hour of stimulation, the medium was removed, and every well was washed with 2 ml phosphate buffered saline and fixed with 200 μl TRIzol. The cells were removed from each well and transferred into a 1.5 ml Eppendorf tube, respectively.
For cell breakdown, 40 μl chloroform was added to each Eppendorf tube. The broken cells were centrifuged for 15 min at 1400 g and 4° C. The supernatant containing RNA/DNA was taken, mixed with 100 μl isopropanol and centrifugated for 20 min at 1500 g and 4° C. The supernatant was discarded and the pellet was resuspended in 500 μL ethanol. The RNA from the pellet was purified by chromatography. The concentration of the RNA was determined by NANODROP.
The quantification of the hypertrophy marker α-sceletal muscle actin (α-actin 1) mRNA was performed by quantitative real-time PCR. First, the RNA was transcribed to a cDNA with a SuperScript™III First-Strand Synthesis SuperMix (Invitrogen) and random hexamer primers. The cDNA was amplified in a PCR reaction in an Applied Biosystem StepOne™ Real-Time PCR System. Glycerinealdehydephosphate dehydrogenase and NTC (no template control) was used as controls. All samples were triplicates. The following primers have been used: […]

[4] = system: different RhoGEF constructs; experiment: Dual luciferase SRE reporter assay, other RhoGEF constructs in HEK293; assay type: cell-based, human; conditions: 50 μmol/L, vs DMSO treated control
Protocol: (§1) The experiments were performed following the protocol of the dual luciferase reporter assay (Promega). HEK293 cells were transfected with plasmid DNAs of two luciferases and plasmids of different exchange factors. A serum response element was located ahead of the coding luciferase sequences. Activated RhoA activates the serum response element, which enables the expression of the firefly luciferase. After 4 hours the cells were treated with compound 31413. After additional twenty four hours the cells were lysed in passive lysis buffer (Promega). The luciferase activity in the cell lysate was determined by measurement of the luminescence signal according to above mentioned protocol with 96 well plate (OptiPlate 96) and LarII- and. Stop-&Glow-substrate solutions in a micro plate reader
(§2) To rule out that other RhoGEF are influenced by the inventive compounds in their activity, HEK293 cells were transfected with different RhoGEF constructs. Additionally, as normalization control, two luciferase plasmids were added, which code for a serum response element (SRE) coupled firefly luciferase and for a Renilla luciferase, respectively. […] The luciferase activities were determined in the lysate. […] Further, the luciferase activity of the indicated RhoGEFs was analysed in absence or presence of 50 μmol/L compound 31413 (FIG. 4 B).

[5] = system: Gα12 coupled and AKAP-Lbc mediated activation of RhoA; experiment: Rhotekin-based precipitation of RhoA-GTP, HEK293 transfected with Gα12QL / AKAP-Lbc; assay type: cell-based, human; conditions: 50 μmol/L, 30 min, vs DMSO
Protocol: HEK293 cells were seeded in 6-well plates. One day later the cells were transfected with the following plasmid DNAs:
After additional 24 hours the cells were treated with compound 31413 (50 μmol/L) or DMSO for 30 min at 37° C. Subsequently, the cells were lysed in precipitation buffer (50 mM Tris pH 7.4, 150 mmol/L NaCl, 4 mmol/L MgCl2; 10% v/v glycerol, 1% octylphenoxypolyethoxyethanol [IPEGAL]) and centrifugated 20000 g for two minutes to remove cell debris. 40 μl of the lysate were taken for the determination of the total RhoA content. The residual lysate was incubated with 40 μl GSH-sepharose coupled GST-rhotekin for one hour at 4° C. Then, the GSH-sepharose was washed twice with precipitation buffer, enriched with SDS-PAGE loading buffer and heated 5 min at 90° C. […] The ratio between total RhoA and Rho-GTP was densitometrically determined.
The activation state of RhoA was determined with a Rho binding region of the rhotekin protein, a Rho effector, immobilised on a sepharose bead in the presence and absence of compound 31413. […]
GTP-bound RhoA was detected by rhotekin precipitation (FIG. 3). The precipitation of RhoA from transfected HEK293 cells was performed with a rhotekin sepharose, and analysed with SDS-PAGE and immunoblotting with a RhoA specific antibody. […] The precipitated RhoA-GTP was separated with SDS-PAGE, blotted and detected with a specific anti-RhoA antibody.

[6] = system: AKAP-Lbc mediated RhoA/SRF activation; experiment: Dual luciferase SRE reporter assay, AKAP-Lbc transfected HEK293; assay type: cell-based; conditions: Homo sapiens
Protocol: as §1, §2

[7] = Fluo-4, pre-incubation 2.5 μmol/L

COc1ccc(-c2coc3cc4oc(=O)c(C)c(C)c4cc23)cc1 [Compound 31413, 3-(4-methoxyphenyl)-5,6-dimethyl-furo[3,2-g]chromen-7-one]
adrenalin (beta-adrenoceptor)-induced increase in cardiac myocyte beating frequency [1]: does not, however, affect | PE induced increase of beat rate [1, 7]: inhibited only the PE induced increase of beat rate | adrenaline induced increase of beat rate [1, 7]: not the adrenaline induced one | IC50 [2]: 25.9 µM | α-actin 1 mRNA amount ([3]; PE 100 μmol/L 24 h, compound 10 or 50 μmol/L): concentration dependent decrease | relative amount of α-actin 1 mRNA ([3]; without PE stimulation): no significant change | luciferase activity of the indicated RhoGEFs [4]: None of the investigated GEF shows a significant reduction | amount of activated GTP-bound RhoA precipitated [5]: significantly decreased amount of activated GTP-bound RhoA; also recorded: less RhoA-GTP was precipitated | IC50 [6]: ~25 µM
